Source: patent US11312720B2, “Hydrochloride salt of 2-((3R,4S)-1-(5-(4-chloro-3,5-difluorophenyl)-7-((2-fluoro-6-methylphenyl)(methyl)amino)pyrazolo[1,5-a]pyrimidine-2-carbonyl)-3-methoxypiperidin-4-yl) acetic acid and crystals thereof” (Eisai R&D Management Co., Ltd., priority 2018, dated 2022)
In brackets after ≈: the same amount, converted by molar mass.

Tests used:
[1] = Solubility test (24 h shaking at room temperature, HPLC); format: physicochemical; conditions: thermodynamic from solid
Experimental: About 1 mg of the test compound was weighed into a test tube and 1 mL of a test solution was added. For the test solutions, a 0.1 M hydrochloric acid aqueous solution (pH 1) and Britton-Robinson buffers (pH 3, pH 5 and pH 7; ionic strength 0.3) were used. The test solution was shaken at room temperature for 24 hours and subsequently filtered through a filter. A concentration of the test compound in the filtrate was measured by high-performance liquid chromatography to evaluate solubility. […] Additionally, high-performance liquid chromatography (HPLC) conditions are shown below.
Column; YMC-Pack Pro C18, 4.6 mm×35 mm, 3 μm
Mobile phase A; water:acetonitrile:70% perchloric acid=900:100:1
Mobile phase B; water:acetonitrile:70% perchloric acid=100:900:1
Column temperature; 40° C.
Detection wavelength; 275 nm

[2] = Dissolution test by the paddle method in FaSSIF; format: physicochemical; conditions: FaSSIF pH 6.5, 37° C., 50 rpm, about 10 mg in 100 mL
Experimental: The dissolution test was carried out by the paddle method using FaSSIF (an aqueous solution containing 3 mM sodium taurocholate, 0.75 mM lecithin, 29 mM sodium dihydrogen phosphate and 103 mM potassium chloride and adjusted to pH 6.5 by adding dropwise a sodium hydroxide aqueous solution) as the test solution. About 10 mg of the test compound was added to 100 mL of the test solution. Under the condition at 37° C. and 50 rpm, the test solution was stirred using a paddle. After the start of the stirring, 1 mL of the test solution was collected at each of the time points shown in Table 6 and filtered through a filter. A concentration of the test compound in the filtrate was measured by high-performance liquid chromatography (HPLC conditions were the same conditions described in Test Example 2).

[3] = aqueous buffer, pH 3, Britton-Robinson buffer
[4] = aqueous buffer, pH 5, Britton-Robinson buffer
[5] = aqueous buffer, pH 7, Britton-Robinson buffer
[6] = simulated gastric fluid, pH 1, 0.1M hydrochloric acid aqueous solution

Row | solubility at 24 h [1, 3] [µg/mL] | solubility at 24 h [1, 4] [µg/mL] | solubility at 24 h [1, 5] [µg/mL] | solubility at 24 h [1, 6] [µg/mL] | Concentration of Test compound ([2]; 10 Min) [ng/mL] | Concentration of Test compound ([2]; 20 Min) [ng/mL] | Concentration of Test compound ([2]; 24 Hours) [ng/mL] | Concentration of Test compound ([2]; 30 Min) [ng/mL] | Concentration of Test compound ([2]; 40 Min) [ng/mL] | Concentration of Test compound ([2]; 60 Min) [ng/mL] | Concentration of Test compound ([2]; 90 Min) [ng/mL] | Concentration of Test compound ([2]; 120 Min) [ng/mL] | Concentration of Test compound ([2]; 180 Min) [ng/mL] | Concentration of Test compound ([2]; 240 Min) [ng/mL] | Compound
1 | < 1 | 1 | > 1200 | 4 | 30000 | 38000 | 103000 | 46000 | 51000 | 61000 | 72000 | 78000 | 85000 | 87000 | CO[C@H]1CN(C(=O)c2cc3nc(-c4cc(F)c(Cl)c(F)c4)cc(N(C)c4c(C)cccc4F)n3n2)CC[C@H]1CC(=O)O.Cl [Example 1, 2-((3R,4S)-1-(5-(4-chloro-3,5-difluorophenyl)-7-((2-fluoro-6-methylphenyl)(methyl)amino)pyrazolo[1,5-a]pyrimidine-2-carbonyl)-3-methoxypiperidin-4-yl)acetic Acid Hydrochloride]
2 | < 1 | < 1 | 13 (≈ 21.6 µM) | < 1 | 4000 | 7000 | 18000 | 8000 | 9000 | 10000 | 11000 | 11000 | 12000 | 12000 | CO[C@H]1CN(C(=O)c2cc3nc(-c4cc(F)c(Cl)c(F)c4)cc(N(C)c4c(C)cccc4F)n3n2)CC[C@H]1CC(=O)O [Reference Example 4, 2-((3R,4S)-1-(5-(4-chloro-3,5-difluorophenyl)-7-((2-fluoro-6-methylphenyl)(methyl)amino)pyrazolo[1,5-a]pyrimidine-2-carbonyl)-3-methoxypiperidin-4-yl)acetic Acid]
